{"source": "paper PMC6585789", "about": "(American Journal of Hematology, 2017)", "key": {"[1]": {"conditions": "potentially due to induction of metabolizing enzymes; cited from earlier work"}, "[2]": {"system": "subjects with newly diagnosed AML harboring FLT3 mutations", "conditions": "in combination with standard first line chemotherapy; cited from earlier work"}, "[3]": {"assay": "Plasma pharmacokinetics of quizartinib and AC886", "type": "in vivo, human"}, "[4]": {"system": "subjects with FLT3‐ITD–mutated AML following HCT", "conditions": "sorafenib maintenance following HCT; cited from earlier work"}}, "data": [{"smiles": "CO[C@@H]1[C@H](N(C)C(=O)c2ccccc2)C[C@H]2O[C@]1(C)n1c3ccccc3c3c4c(c5c6ccccc6n2c5c31)C(=O)NC4", "note": "[midostaurin]", "values": [{"measurement": "Plasma concentrations during continuous dosing", "setting": "[1]", "value": "decrease during continuous dosing"}, {"measurement": "OS benefit", "setting": "[2]", "value": "significant OS benefit"}]}, {"smiles": "CC(C)(C)c1cc(NC(=O)Nc2ccc(-c3cn4c(n3)sc3cc(OCCN5CCOCC5)ccc34)cc2)no1.Cl.Cl", "note": "[quizartinib, N‐(5‐tert‐butyl‐isoxazol‐3‐yl)‐N′‐{4‐[7‐(2‐morpholin‐4‐yl‐ethoxy)imidazo[2,1‐b][1, 3]benzothiazol‐2‐yl]phenyl}urea dihydrochloride]", "values": [{"measurement": "Plasma trough concentrations reached steady state by", "setting": "[3]; daily administration", "value": "~15", "unit": "days"}, {"measurement": "Mean trough concentration", "setting": "[3]; from cycle 2 onward, continuous administration", "value": "> 300", "unit": "ng/mL"}, {"measurement": "Tmax", "setting": "[3]; human, plasma, oral", "value": "2 to 3.21", "unit": "h"}, {"measurement": "Increase in geometric mean AUC0–24 during multiple dosing", "setting": "[3]; quizartinib, both doses", "value": "approximately 5 fold"}]}, {"smiles": "CNC(=O)c1cc(Oc2ccc(NC(=O)Nc3ccc(Cl)c(C(F)(F)F)c3)cc2)ccn1", "note": "[sorafenib]", "values": [{"measurement": "1‐year OS", "setting": "[4]", "value": 95, "unit": "%"}, {"measurement": "1‐year progression‐free survival (PFS)", "setting": "[4]", "value": 85, "unit": "%"}]}]}
